Broadly, the IC50 is the point on the concentration scale where inhibition reaches its midpoint. As a reminder, the inhibition is the relative decrease from the control value, in per cent.

These results are taken from patent US5624923A, “Tricyclic diazepine vasopressin antagonists and oxytocin antagonists” (priority 1995, dated 1997).

Read-outs that look alike come from different tables or passages of the source.

For one experiment, the target named is T1, Rat Hepatic V1 Receptors (Rattus norvegicus, UniProt P30560).
T1 construct: Rat liver plasma membranes expressing the vasopressin V1 receptor subtypes; from tissue; host or cells: rat liver plasma membranes
The experiment is described as follows: Binding Assay to Rat Hepatic V1 Receptors. The note with it: for inhibition at 10 µM: 2 h, rat.

Experiment [1] concerns the target T2, Rat Kidney Medullary V2 Receptors (Rattus norvegicus, UniProt Q00788).
T2 construct: Medullary tissues from rat kidneys are dissected out; from tissue; host or cells: rat kidney medulla membranes
The experiment is described as follows: Binding Assay to Rat Kidney Medullary V2 Receptors. The following applies: for IC50: rat kidney medulla membranes, read-out: V2 IC50. The procedure, abridged:
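Membranes were prepared from rat kidney medulla and stored in 50.0 mM Tris-HCl pH 7.4 with 0.2% BSA and 0.1 mM PMSF. Radioligand competition ran 120 min at bench temperature, with 1.0 μM unlabeled ligand defining nonspecific binding. Compounds were added in 50% DMSO; filtration, tritium scintillation counting, IC50 from competition analysis.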

In a further experiment the test system is Vasopressin V2. The experiment is described as follows: Vasopressin V2 Antagonist Activity in Conscious Hydrated Rats. The experiment is classed as in vivo, rat. The following applies: 10 mg/kg orally, AVP 0.4 μg/kg i.p. The procedure, abridged: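 Four-hour urine output, osmolality and electrolytes (Na+, K+, Cl−) recorded in water-loaded rats (30 mL/kg deionized water orally) given AVP i.p. at 0.4 μg/kg. Test compounds were given orally at 0.1–100 mg/kg 1 h before AVP; 2–4 rats per compound.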

The next experiment deals with T3, oxytocin receptors (Rattus norvegicus, UniProt P70536).
T3 construct: The uteri are dissected out, cleaned of fat and connective tissues; from tissue; host or cells: uterus of DES-treated female Sprague-Dawley rats
T3 sequence (P70536 1-388): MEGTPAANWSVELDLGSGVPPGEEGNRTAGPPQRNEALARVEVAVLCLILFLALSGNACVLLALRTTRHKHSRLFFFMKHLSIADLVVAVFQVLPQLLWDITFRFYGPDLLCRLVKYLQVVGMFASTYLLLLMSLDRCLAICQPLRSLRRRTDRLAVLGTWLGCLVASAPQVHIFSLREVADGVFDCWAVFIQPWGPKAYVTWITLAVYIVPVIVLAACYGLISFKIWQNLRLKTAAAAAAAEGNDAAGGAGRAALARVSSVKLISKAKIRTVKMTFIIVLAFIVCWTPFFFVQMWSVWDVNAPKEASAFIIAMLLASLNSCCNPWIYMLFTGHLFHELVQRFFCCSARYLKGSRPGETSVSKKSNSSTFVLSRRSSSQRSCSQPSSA
The experiment is described as follows: Oxytocin Receptor Binding. The note with it: for IC50: 1.0 nM [3H]oxytocin; for inhibition at 10 µM: [3H]oxytocin. The procedure, abridged: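 Membranes from uteri of DES-primed (0.3 mg/kg i.m., 18 h) female Sprague-Dawley rats. Competition with 1.0 nM [3H]oxytocin in 50 mM Tris.HCl pH 7.4, 5 mM MgCl2 with protease inhibitors, 60 min at 22 °C, filtration read-out. Non-specific binding with 1.0 uM unlabeled OT; IC50 calculated.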

Experiment [2] addresses T4, V1 Receptor Subtype in Human Platelet (Homo sapiens, UniProt P37288).
T4 construct: tissue Hudson Valley Blood Services, Westchester Medical Center, Valhalla, N.Y; host or cells: human platelets (frozen platelet rich plasma)
Briefly: Binding to Vasopressin V1 receptor subtype in Human Platelet Membranes. The following applies: human platelet membranes. The procedure:
Radioligand Binding Experiments with Human Platelet Membranes (a) Platelet Membrane Preparation: Frozen platelet rich plasma (PRP), (Platelet Source: Hudson Valley Blood Services, Westchester Medical Center, Valhalla, N.Y.) are thawed to room temperature. The tubes containing the PRP are centrifuged at 16,000×g for 10 min. at 4° C. and the supernatant fluid discarded. […] The suspension is recentrifuged at 16,000× g for 10 min. This washing step is repeated one more time. The wash discarded and the lysed pellets homogenized in low ionic strength buffer of Tris.HCl, 5.0 mM, pH 7.5 containing 5.0 mM EDTA. The homogenate is centrifuged at 39,000× g for 10 min. The resulting pellet is resuspended in Tris. […] The final pellet is resuspended in 50.0 mM Tris. HCl buffer pH 7.4 containing 120 mM NaCl and 5.0 mM KCl to give 1.0-2.0 mg protein per ml of suspension. […] Platelet Membranes […] Then add 20 μl of [^3 H]Ligand (Manning or […] Vasopressin), to give final concentrations ranging from 0.01 to 10.0 nM. Initiate the binding by adding 80.0 μl of platelet suspension (approx. 100 μg protein). Mix all reagents by pipetting the mixture up and down a few times. Non specific binding is measured in the presence of 1.0 μM of unlabeled ligand (Manning or […] Vasopressin). Let the mixture stand undisturbed at room temperature for ninety (90) min. Upon this time, rapidly filter off the incubate under vacuum suction over GF/B filters, using a Brandel Harvester. Determine the radioactivity caught on the filter disks by the addition of liquid scintillant and counting in a liquid scintillator.

The target of experiment [3] is T5, Human V2 Vasopressin Receptor (Homo sapiens, UniProt P30518).
T5 construct: expressed in transfected cells; host or cells: mouse fibroblast cell line LV-2
The experiment is described as follows: Binding to Membranes of Mouse Fibroblast Cell Line (LV-2) Transfected with the cDNA Expressing the Human V2 Vasopressin Receptor. How it is done:
Binding to Membranes of Mouse Fibroblast Cell Line (LV-2) Transfected with the cDNA Expressing the Human V2 Vasopressin Receptor
Flasks of 175 ml capacity, containing attached cells grown to confluence, are cleared of culture medium by aspiration. The flasks containing the attached cells are rinsed with 2×5 ml of phosphate buffered saline (PBS) and the liquid aspirated off each time. Finally, 5 ml of an enzyme free dissociation Hank's based solution (Specialty Media, Inc., Lafayette, N.J.) is added and the flasks are left undisturbed for 2 min. The content of all flasks is. poured into a centrifuge tube and the cells pelleted at 300× g for 15 min. The Hank's based solution is aspirated off and the cells homogenized with a polytron at setting #6 for 10 sec in 10.0 mM Tris.HCl buffer, pH 7.4 containing 0.25M sucrose and 1.0 mM EDTA. The homogenate is centrifuged at 1500× g for 10 min to remove ghost membranes. The supernatant fluid is centrifuged at 100,000× g for 60 min. to pellet the receptor protein. Upon completion, the pellet is resuspended in a small volume of 50.0 mM Tris. HCl buffer, pH 7.4. The protein content is determined by the Lowry method and the receptor membranes are suspended in 50.0 mM Tris.HCl buffer containing 0.1 mM phenylmethylsulfonylfluoride (PMSF) and 0.2% bovine serum albumin (BSA) to give 2.5 mg receptor protein per ml of suspension.
Arginine^8, vasopressin (S.A. 75.0 Ci/mmole) at 0.8 nM and the reaction initiated by the addition of 80.0 μl of tissue membranes (200.0 μg tissue protein). The plates are left undisturbed on the bench top for 120 min to reach equilibrium. Non specific binding is assessed in the presence of 1.0 μM of unlabeled ligand, added in 20 μl volume. For test compounds, these are solubilized in 50% dimethylsulfoxide (DMSO) and added in 20.0 μl volume to a final incubation volume of 200 μl. Upon completion of binding, the content of each well is filtered off, using a Brandel® cell Harvester (Gaithersburg, Md.). The radioactivity trapped on the filter disk by the ligand-receptor complex is assessed by liquid scintillation counting in a Packard LS Counter, with an efficiency of 65% for tritium. The data are analyzed for IC50 values by the LUNDON-2 program for competition (LUNDON SOFTWARE, Ohio).

Where [4] appears, read: rat liver membranes, read-out: V1 IC50.
Where [5] appears, read: LV-2 cell membranes, human V2, read-out: V2 IC50 (**).

T1 sequence (P30560 whole entry): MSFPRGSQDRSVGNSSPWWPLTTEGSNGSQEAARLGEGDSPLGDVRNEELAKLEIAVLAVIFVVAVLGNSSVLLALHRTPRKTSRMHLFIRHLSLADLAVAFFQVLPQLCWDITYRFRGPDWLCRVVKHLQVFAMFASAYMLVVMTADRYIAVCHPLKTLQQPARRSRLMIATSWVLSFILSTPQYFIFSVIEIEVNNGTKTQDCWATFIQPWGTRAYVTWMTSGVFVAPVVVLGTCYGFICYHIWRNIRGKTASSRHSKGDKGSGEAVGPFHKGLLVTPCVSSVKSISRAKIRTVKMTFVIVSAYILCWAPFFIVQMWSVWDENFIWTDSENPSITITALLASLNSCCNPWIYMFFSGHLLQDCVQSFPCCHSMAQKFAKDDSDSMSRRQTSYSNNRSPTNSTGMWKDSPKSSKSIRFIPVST
T5 sequence (P30518 whole entry): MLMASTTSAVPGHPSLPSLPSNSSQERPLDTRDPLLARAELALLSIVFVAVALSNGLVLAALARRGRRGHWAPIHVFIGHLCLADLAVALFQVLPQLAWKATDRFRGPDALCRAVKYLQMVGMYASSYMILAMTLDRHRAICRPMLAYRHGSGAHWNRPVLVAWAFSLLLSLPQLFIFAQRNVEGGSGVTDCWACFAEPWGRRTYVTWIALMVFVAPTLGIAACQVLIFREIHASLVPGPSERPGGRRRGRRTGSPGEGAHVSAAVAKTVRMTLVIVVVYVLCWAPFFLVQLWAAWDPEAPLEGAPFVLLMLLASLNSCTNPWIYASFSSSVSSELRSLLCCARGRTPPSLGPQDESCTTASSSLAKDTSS
T4 sequence (P37288 whole entry): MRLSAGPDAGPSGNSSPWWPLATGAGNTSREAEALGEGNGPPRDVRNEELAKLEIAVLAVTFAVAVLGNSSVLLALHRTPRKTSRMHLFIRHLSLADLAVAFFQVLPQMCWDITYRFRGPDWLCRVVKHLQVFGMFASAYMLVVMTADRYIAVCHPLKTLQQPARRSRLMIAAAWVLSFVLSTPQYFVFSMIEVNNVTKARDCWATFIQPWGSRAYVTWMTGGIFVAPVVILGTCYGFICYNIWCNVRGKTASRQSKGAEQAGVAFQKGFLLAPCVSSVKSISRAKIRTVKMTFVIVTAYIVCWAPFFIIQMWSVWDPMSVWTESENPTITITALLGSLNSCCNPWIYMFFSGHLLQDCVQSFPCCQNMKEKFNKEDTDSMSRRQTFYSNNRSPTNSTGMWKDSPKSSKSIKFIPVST
T2 sequence (Q00788 whole entry): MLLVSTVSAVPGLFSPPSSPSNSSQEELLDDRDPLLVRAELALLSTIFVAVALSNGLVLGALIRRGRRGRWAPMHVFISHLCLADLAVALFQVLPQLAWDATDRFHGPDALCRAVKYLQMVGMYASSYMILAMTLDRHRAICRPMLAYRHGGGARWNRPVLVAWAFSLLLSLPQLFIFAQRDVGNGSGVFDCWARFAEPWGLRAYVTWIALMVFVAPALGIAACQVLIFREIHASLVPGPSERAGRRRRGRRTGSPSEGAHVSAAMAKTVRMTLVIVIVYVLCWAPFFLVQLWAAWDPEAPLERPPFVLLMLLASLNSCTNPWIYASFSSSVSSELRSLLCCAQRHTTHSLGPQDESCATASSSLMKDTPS

As for `Cc1ccccc1C(=O)Nc1ccc(C(=O)N2CCc3cccn3-c3ccccc32)cc1` [Example 297], the half-inhibitory concentration (IC50) on Rat Hepatic V1 Receptors (setting [4]) was determined as 270 nM. Further, the IC50 in experiment [1] worked out at 33 nM. Also, in the experiment on Vasopressin V2, the Osmolality turned out to be 796 mOsm/kg and the “Urine Volume” value is reported as 7 ml/4 hrs. Also, on oxytocin receptors, the IC50 came to 4000 nM and at 10 µM the inhibition was 76%.
With `Cc1cc(C(=O)N2Cc3cccn3Cc3ccccc32)cc(C)c1NC(=O)c1ccc(Cl)cc1Cl` [Example 473], the figures for the inhibition at 10 µM (on Rat Hepatic V1 Receptors; in experiment [1] (rat); on oxytocin receptors) were 90%, 56% and 20%, respectively. In the experiment with Vasopressin V2, this compound came in with an Osmolality of 1493 mOsm/kg. Besides, in the experiment with Vasopressin V2, the “Urine Volume” value was determined as 2.3 ml/4 hrs.
Take `CN(C)CCSC(C(=O)Nc1ccc(C(=O)N2Cc3cccn3Cc3ccccc32)cc1)c1ccccc1` (stereo not drawn) [Example 584, α-[[2-(Dimethylamino)ethyl]thio]-N-[4-(5H-pyrrolo[2,1-c][1,4]benzodiazepin-10(11H)-ylcarbonyl)phenyl]benzeneacetamide]: the concentration for half-maximal inhibition (IC50) on Rat Hepatic V1 Receptors (setting [4]) was determined as 1200 nM; in experiment [1], 480 nM. The Osmolality in the experiment with Vasopressin V2 amounted to 1718 mOsm/kg. Moreover, the “Urine Volume” value in the experiment on Vasopressin V2 amounted to 2.5 ml/4 hrs. Further, testing at 10 µM at oxytocin receptors gave an inhibition of 26%.
Turning to `CN(C)C(C(=O)Nc1ccc(C(=O)N2Cc3cccn3Cc3ccccc32)cc1)c1ccccc1` (stereo not drawn) [Example 586, α-(Dimethylamino)-N-[4-(5H-pyrrolo[2,1-c][1,4]benzodiazepin-10(11H)-ylcarbonyl)phenyl]benzeneacetamide], the 50% inhibitory concentration (IC50) on Rat Hepatic V1 Receptors (setting [4]) was determined as 450 nM. Further, the concentration for half-maximal inhibition (IC50) in experiment [1] turned out to be 230 nM. Besides, in the experiment on Vasopressin V2, the Osmolality was 1196 mOsm/kg and the “Urine Volume” value is reported as 4.3 ml/4 hrs. At oxytocin receptors, the IC50 turned out to be 4700 nM and at 10 µM the inhibition was 61%.
For the compound `O=C(Nc1ccc(C(=O)N2Cc3ccc(C(=O)C(Cl)(Cl)Cl)n3Cc3ccccc32)cc1)c1ccccc1C(F)(F)F` [Example 597], the inhibition at 10 µM was 100% at Rat Hepatic V1 Receptors, 97% in experiment [1] (rat) and 42% at oxytocin receptors. This compound also displayed an Osmolality with Vasopressin V2 of 1250 mOsm/kg. Also, in the experiment with Vasopressin V2, the “Urine Volume” value was determined as 5.3 ml/4 hrs.
Take `Cc1c(F)cccc1C(=O)Nc1ccc(C(=O)N2CCc3cccn3-c3ccccc32)c(Cl)c1` [Example 611, N-[4-[(6,7-Dihydro-5H-pyrrolo[1,2-a]-[1,5]benzodiazepin-5-yl)carbonyl]-3-chlorophenyl]-3-fluoro-2-methyl-benzamide]: the figures for the concentration for half-maximal inhibition (IC50) in experiment [2] and in experiment [3] (setting [5]) were 500 nM and 4 nM, respectively.
Taken in the same sequence, the figures for `Cc1ccc(F)cc1C(=O)Nc1ccc(C(=O)N2CCc3cccn3-c3ccccc32)c(Cl)c1` [Example 612, N-[4-[(6,7-Dihydro-5H-pyrrolo[1,2-a]-[1,5]benzodiazepin-5-yl)carbonyl]-3-chlorophenyl]-5-fluoro-2-methyl-benzamide] were 1700 nM and 10 nM.
For `Cc1ccccc1C(=O)Nc1ccc(C(=O)N2Cc3ccc(CN(C)C)n3Cc3ccccc32)c(Cl)c1` [Example 669, N-[4-[[3-[(dimethylamino)methyl]-5H-pyrrolo[2,1-c][1,4]benzodiazepin-10(11H)-yl]carbonyl]-3-chlorophenyl]-2-methylbenzamide], the IC50 in experiment [2] was 71 nM; in experiment [3] (setting [5]) it was 35 nM.
Turning to `O=Cc1cccn1CC(=O)Nc1ccc(C(=O)N2Cc3cccn3Cc3ccccc32)cc1` [Example 685, N-[4-(5H-Pyrrolo[2,1-c][1,4]benzodiazepin-10(11H)-ylcarbonyl)phenyl]-2-(2-formyl-1-pyrrolo)acetamide], the IC50 in experiment [2] and in experiment [3] (setting [5]) was 61 nM in each case.
As for `CC(=O)Oc1ccccc1C(=O)Nc1ccc(C(=O)N2Cc3cccn3Cc3ccccc32)cc1` [Example 688, N-[4-(5H-pyrrolo[2,1-c][1,4]benzodiazepin-10(11H)-ylcarbonyl)phenyl]-2-(acetoxy)benzamide], the IC50 in experiment [2] stood at 69 nM; in experiment [3] (setting [5]), 34 nM.
On to `O=C(Nc1ccc(C(=O)N2Cc3cccn3Cc3ccccc32)cc1)c1ccccc1O` [Example 689, N-[4-(5H-pyrrolo[2,1-c][1,4]benzodiazepin-10(11H-)-ylcarbonyl)phenyl]-2-hydroxybenzamide], for which the 50% inhibitory concentration (IC50) in experiment [2] is 85 nM; in experiment [3] (setting [5]), 540 nM.
As for `O=C(Nc1ccc(C(=O)N2Cc3cccn3Cc3ccccc32)cc1)c1cccc2ccccc12` [Example 690, N-[4-(5H-pyrrolo[2,1-c][1,4]benzodiazepin-10(11H)-ylcarbonyl)phenyl]-1-naphthylcarboxamide], the IC50 in experiment [2] worked out at 220 nM; in experiment [3] (setting [5]), 22 nM.
For the compound `Cc1ccc(F)cc1C(=O)Nc1ccc(C(=O)N2Cc3cccn3Cc3ccccc32)c(C)c1` [Example 694, N-[4-(5H-pyrrolo[2,1-c][1,4]benzodiazepin-10(11H)-ylcarbonyl)-3-methylphenyl]-5-fluoro-2-methylbenzamide], the figures for the IC50 (at Rat Hepatic V1 Receptors; in experiment [3]) were 120 nM and 1.7 nM, respectively.
Compound `Cc1ccc(C)c(C(=O)Nc2ccc(C(=O)N3Cc4cccn4Cc4ccccc43)c(Cl)c2)c1` [Example 701, N-[4-(5H-pyrrolo[2,1-c][1.4]benzodiazepin-10(11H)-ylcarbonyl)-3-chloro-phenyl]-2,5-dimethylbenzamide] returned an inhibition at 1 µM in experiment [1] (1 μM, rat) of 100%. Besides, the 50% inhibitory concentration (IC50) in experiment [2] came to 340 nM.
